Assay results taken from US20200375954A1, “THERAPEUTIC AGENT FOR FOOD COMPETENCE DISORDER IN STOMACH” (ZERIA PHARMACEUTICAL CO., LTD., priority 2002, published 2020).
Structures can show the parent of a compound that is named as a salt.

What was measured:
[1] = known side effect; cited from earlier work
[2] = system: adult male mongrel dog (gastric fundus); experiment: Barostat test in dog; type: in vivo; conditions: for Volume change of Air-bag / Activity of alleviating impaired gastric accommodation (in words): i.v.; for Volume change of Air-bag: 5 minutes after liquid test meal, mean air-bag volume after vs before agent, mean ± standard error; for Volume increase of air-bag, ΔmL: method of Example 1, N=1; for Activity of alleviating impaired gastric accommodation (in words): barostat test in dog
Protocol: A gastric fistula (KN-365, D-14-C from Natsume Seisakusyo Co., Ltd.) was installed permanently in the center of stomach anterior wall of an adult male mongrel dog, and was used for air-bag insertion.
The fistula-installed dog was abstained from food for not shorter than 18 hours, followed by opening the gastric fistula and washing inside stomach by infusion of saline into stomach, before starting experiment. This procedure was repeated 2 to 3 times as appropriate. The air-bag (maximal volume: about 750 mL) fabricated using a commercially available polyethylene bag was inserted into stomach through gastric fistula and fixed using a silicone plug, followed by connection to barostat instrument and starting measurement under nonrestraint condition. Volume change of the air-bag was recorded on both a recorder and a computer.
After insertion of the air-bag into stomach, the bag was once infused with air up to 500 mL, followed by immediate and complete air evacuation, and starting recording by adjusting initial inner pressure of the air-bag to be 6±2 mmHg. After stabilization for not shorter than 15 minutes, 50 mL of a liquid test meal (12.5 kcal, Besvion^RT from Fujisawa Pharmaceutical Co., Ltd.) dissolved in warm water (30 to 40° C.) was […] administered into stomach. Five minutes after administration of the test meal, a solvent and test agents were administrated intravenously. Mean air-bag volumes (mL) for each 5 minutes before administration of the test meal, along with before and after administration of the test agents were calculated using a computer analyzing system to compare differences in mean air-bag volumes (mL) before and after administration of the test agents.

[3] = system: patient with functional dyspepsia (stomach); experiment: Barostat test in human; type: in vivo
Protocol: A patient with functional dyspepsia, based on Rome II standard, was fasted overnight (for not shorter than 12 hours). Oral administration of 300 mg of a compound a, hydrochloride, and placebo has been conducted by a responsive doctor of clinical trial. Thirty minutes later, a polyvinyl adhesive plastic bag with dual ducts (1100 mL, maximal diameter: 17 cm, from Meditronic-Synetics Medical Ltd., Enfield, UK) was folded up to a small piece and introduced into stomach through mouth or nose, and the ducts were fixed on chin by an adhesive tape. The location of the bug in fundus of stomach was confirmed by radioscopy.
The polyvinyl tubing was connected to a computer controlled volume-replacement pressure regulator. This regulator can simultaneously monitor pressure and volume with sampling rate of 8 times per second, and also can load volume ramps and pressurizing steps with various rates. Trial subjects were kept in recumbent position and predetermined volume of air (300 mL) was infused for 2 minutes to expand the bug in stomach, and again the air was evacuated completely. After stabilization for 10 minutes, the trial subjects were allowed to keep relaxed by slightly skewing knees on a bed.
After 30 minutes of adaptation period, minimum invasive gastric dilatation pressure (MDP), that is, the minimum pressure to give not less than 30 mL of the bag inner volume, was measured by increasing inner pressure by 1 mmHg per minute. This pressure (MDP) […] equilibrates intraabdominal pressure. Then, pressure was increased from the MDP stepwisely with isobaric expansions by each 2 mmHg. At each pressure increase step, corresponding inner volume of stomach was recorded, and kept for 2 minutes. At the end of each expansion step, patients were asked to express feeling of stimulation at upper abdomen by scores from 0 to 6 with verbal explanation. The expansion procedure was terminated when inner volume of the bag reached to 1000 mL or the patient complained discomfort or soreness (score: 5 or 6).
Further, after 30 minutes of adaptation period, the pressure level was adjusted to the MDP+2 mmHg, and kept for 90 minutes. Thirty minutes later, a mixed liquid diet (200 mL, 300 kcal, protein 13%, carbohydrate 39%, Nutridrink™, Nutricia) was given by oral ingestion, followed by measurement of stomach tension over further 60 minutes.
Average inner volume of the balloon for each 2 minutes expansion period was obtained from the recorded value. […]
To evaluate stomach tension before and after meal, average volume of the balloon was measured continuously at every 5 minutes. The maximum relaxation value was obtained as difference between average volume before meal and the maximum volume after meal among average volumes measured at every 5 minutes after meal.

Structure (SMILES): COc1cc(N)c(Cl)cc1C(=O)NC1CCN(CCCOc2ccc(F)cc2)CC1OC (stereo not drawn) [Cisapride, reference compound]
- Extension of Q-T interval (adverse effect) [1]: serious side effect such as extension of Q-T interval
- Volume change of Air-bag ([2]; 0.3 mg/kg): 3.6 ± 25.0 mL

Structure (SMILES): COc1cc(O)c(C(=O)Nc2nc(C(=O)NCCN(C(C)C)C(C)C)cs2)cc1OC [Compound a, hydrochloride, 2-[N-(4,5-dimethoxy-2-hydroxybenzoyl)amino]-4-[(2-diisopropylaminoethyl)aminocarbonyl]-1,3-thiazole]
- Effect on maximum relaxation value of stomach after meal (in words) ([3]; 300 mg, p.o.): significantly increased
- Change in max. relaxation volume ([3]; 300 mg, p.o., N=17, after meal): 24.3 ± 172.3 mL
- Max. relaxation volume after treatment ([3]; 300 mg, p.o., N=17, after meal): 313.4 mL
- Max. relaxation volume before treatment ([3]; baseline of the 300 mg p.o. group, N=17, after meal): 295.5 mL
- Volume change of Air-bag ([2]; 3 mg/kg): 50.8 ± 16.7 mL
- Volume change of Air-bag ([2]; 3 mg/kg, listed as compound a, hydrochloride): 50.8 mL
- Expansion effect compared with cisapride ([2]; compound a 3 mg/kg i.v. vs cisapride 0.3 mg/kg i.v.): surpassed that of cisapride

Structure (SMILES): COc1cc(Cl)c(C(=O)Nc2nc(C(=O)NCCN(C(C)C)C(C)C)cs2)cc1OC [Compound b, Maleate, 2-[N-(2-chloro-4,5-dimethoxybenzoyl)-amino]-4-[(2-diisopropylaminoethyl)aminocarbonyl]-1,3-thiazole]
- Volume increase of air-bag, ΔmL ([2]; 1 mg/kg i.v.): 29.7 mL
- Activity of alleviating impaired gastric accommodation (in words) [2]: excellent activity of alleviating impaired gastric accommodation

Structure (SMILES): COc1ccc(C(=O)Nc2nc(C(=O)NCCN(C(C)C)C(C)C)cs2)cc1OC [Compound c, hydrochloride, 2-[N-(4,5-dimethoxy-benzoyl)amino]-4-[(2-diisopropylaminoethyl)amino-carbonyl]-1,3-thiazole]
- Volume increase of air-bag, ΔmL ([2]; 1 mg/kg i.v.): 58.2 mL
- Activity of alleviating impaired gastric accommodation (in words) [2]: excellent activity of alleviating impaired gastric accommodation

Structure (SMILES): COc1cc(O)c(C(=O)Nc2cc(C(=O)NCCN(C(C)C)C(C)C)co2)cc1OC.O=C(O)/C=C\C(=O)O [Compound d, Maleate, 2-[N-(4,5-dimethoxy-2-hydroxybenzoyl)amino]-4-[(2-diisopropyl-aminoethyl)aminocarbonyl]furan]
- Volume increase of air-bag, ΔmL ([2]; 3 mg/kg i.v.): 11.4 mL
- Activity of alleviating impaired gastric accommodation (in words) [2]: excellent activity of alleviating impaired gastric accommodation
